The source of these data is ChEMBL document CHEMBL4507269, “Data for DCP probe BAY-386” (2021).

For series [1], the target named is Sigma intracellular receptor 2 (Homo sapiens, UniProt Q5BJF2). In words: GPCRScan assay: inhibition of Sigma 2. Set-up: radioligand conc. used [nm] 5.0, parental cells HEKT.
The target of series [2] is Glucocorticoid receptor (Homo sapiens) (UniProt P04150). The experiment in a line: Glucocorticoid Eurofins-Panlabs radioligand binding assay. The conditions noted are these: Compound concentration 10.0 uM.
Chain of Glucocorticoid receptor (Homo sapiens) (P04150 whole entry): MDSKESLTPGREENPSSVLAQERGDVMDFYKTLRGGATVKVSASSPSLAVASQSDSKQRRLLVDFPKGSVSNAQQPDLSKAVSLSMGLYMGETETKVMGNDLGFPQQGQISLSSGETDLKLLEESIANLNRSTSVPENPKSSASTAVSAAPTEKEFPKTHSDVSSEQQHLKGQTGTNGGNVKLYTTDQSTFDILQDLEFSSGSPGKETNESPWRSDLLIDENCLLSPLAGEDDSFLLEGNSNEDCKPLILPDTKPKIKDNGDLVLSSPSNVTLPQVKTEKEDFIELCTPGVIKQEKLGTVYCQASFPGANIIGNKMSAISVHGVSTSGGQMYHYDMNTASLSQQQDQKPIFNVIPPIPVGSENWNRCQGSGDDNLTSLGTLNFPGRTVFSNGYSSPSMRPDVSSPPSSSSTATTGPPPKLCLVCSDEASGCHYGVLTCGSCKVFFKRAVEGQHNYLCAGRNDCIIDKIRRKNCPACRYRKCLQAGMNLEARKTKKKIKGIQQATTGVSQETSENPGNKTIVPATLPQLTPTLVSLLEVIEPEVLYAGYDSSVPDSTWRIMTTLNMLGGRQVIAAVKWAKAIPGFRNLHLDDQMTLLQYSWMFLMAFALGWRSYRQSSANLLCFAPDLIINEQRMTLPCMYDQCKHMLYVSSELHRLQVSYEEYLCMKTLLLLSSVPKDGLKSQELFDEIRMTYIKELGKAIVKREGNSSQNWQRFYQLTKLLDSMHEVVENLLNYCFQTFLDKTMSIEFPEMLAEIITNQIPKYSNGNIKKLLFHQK
Series [3] has as its target Glutamate receptor ionotropic, kainate (Rattus norvegicus) (UniProt P22756+Q01812+P42260+P42264+Q63273). The experiment in a line: Inhibition of Glutamate, Kainate at 10 µM in the Eurofins-Panlabs radioligand binding assay (Eurofins_assay_232700). The settings on record: Compound concentration 10.0 uM.
The target in series [4] is Platelet-activating factor receptor (Homo sapiens) (UniProt P25105). In words: Inhibition of Platelet Activating Factor (PAF) at 10 µM in the Eurofins-Panlabs radioligand binding assay (Eurofins_assay_265010). The conditions noted are these: Compound concentration 10.0 uM.
Chain of Platelet-activating factor receptor (Homo sapiens) (P25105 whole entry): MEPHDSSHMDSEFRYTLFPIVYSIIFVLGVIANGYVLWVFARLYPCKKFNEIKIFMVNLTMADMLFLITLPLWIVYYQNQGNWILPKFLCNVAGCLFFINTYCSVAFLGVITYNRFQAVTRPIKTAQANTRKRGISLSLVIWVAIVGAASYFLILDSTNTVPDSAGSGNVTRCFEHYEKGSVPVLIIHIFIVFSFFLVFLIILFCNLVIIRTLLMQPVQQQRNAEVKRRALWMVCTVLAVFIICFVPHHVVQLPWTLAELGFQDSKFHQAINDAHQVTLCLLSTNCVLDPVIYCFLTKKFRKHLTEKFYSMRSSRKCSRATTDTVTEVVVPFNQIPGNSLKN
The species entered for the next series is Rattus norvegicus. The experiment in a line: Inhibition of Rolipram at 10 µM in the Eurofins-Panlabs radioligand binding assay (Eurofins_assay_268811). Type of series: protein assay. Set-up: ligand concentration 1.8 nM. The conditions noted are these: Compound concentration 10.0 uM.
For series [5], the target named is Sigma non-opioid intracellular receptor 1 (Homo sapiens) (UniProt Q99720). In words: Sigma 1 Eurofins-Panlabs radioligand binding assay. Details: ligand concentration 8 nM. The conditions noted are these: Compound concentration 10.0 uM.
Chain of Sigma non-opioid intracellular receptor 1 (Homo sapiens) (Q99720 whole entry): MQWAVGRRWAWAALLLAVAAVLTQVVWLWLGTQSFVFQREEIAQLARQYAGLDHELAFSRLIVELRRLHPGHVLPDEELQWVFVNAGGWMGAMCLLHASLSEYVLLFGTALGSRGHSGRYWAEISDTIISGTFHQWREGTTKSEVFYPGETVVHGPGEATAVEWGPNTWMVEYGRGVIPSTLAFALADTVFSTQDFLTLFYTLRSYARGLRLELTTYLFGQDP
The target of series [6] is voltage-gated sodium channel, site 2 (Rattus norvegicus, UniProt F1LQQ7+O08562+O88420+O88457+P04774+P04775+P08104+P15389+P15390+Q62968). The experiment in a line: Inhibition of Sodium Channel, Site 2 at 10 µM in the Eurofins-Panlabs radioligand binding assay (Eurofins_assay_279510). Type of series: protein assay. Set-up: ligand concentration 5 nM, non-specific ligand with concentration 100 µM Veratridine, incubation time 60 min, incubation temperature 37 °C. The settings on record: male, Wistar, rat whole brain (except cerebellum) membranes, probe [3H] Batrachotoxinin, compound concentration 10 uM.

Series [7] concerns the target T1, Alpha-2A adrenergic receptor (Homo sapiens) (UniProt P08913).
T1 sequence (whole entry): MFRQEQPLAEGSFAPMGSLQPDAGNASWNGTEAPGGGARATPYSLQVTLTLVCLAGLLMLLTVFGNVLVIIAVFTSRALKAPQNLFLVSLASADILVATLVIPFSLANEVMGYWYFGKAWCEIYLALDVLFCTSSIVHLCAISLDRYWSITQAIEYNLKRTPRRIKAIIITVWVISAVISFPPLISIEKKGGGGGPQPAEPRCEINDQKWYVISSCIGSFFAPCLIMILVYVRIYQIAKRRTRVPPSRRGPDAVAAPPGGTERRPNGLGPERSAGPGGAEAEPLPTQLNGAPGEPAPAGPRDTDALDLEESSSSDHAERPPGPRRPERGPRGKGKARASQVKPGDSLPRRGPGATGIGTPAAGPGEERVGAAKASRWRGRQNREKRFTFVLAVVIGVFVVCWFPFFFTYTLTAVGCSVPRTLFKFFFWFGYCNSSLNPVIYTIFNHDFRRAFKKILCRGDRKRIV
The experiment in a line: Adrenergic alpha2A Eurofins-Panlabs radioligand binding assay. Details: ligand concentration 1 nM, non-specific ligand with concentration 10 µM WB-4101, incubation time 60 min, incubation temperature 25 °C. The conditions noted are these: Compound concentration 10.0 uM.

Series [8] concerns the target T2, Proteinase-activated receptor 1 (Homo sapiens, UniProt P25116).
T2 sequence (P25116 whole entry): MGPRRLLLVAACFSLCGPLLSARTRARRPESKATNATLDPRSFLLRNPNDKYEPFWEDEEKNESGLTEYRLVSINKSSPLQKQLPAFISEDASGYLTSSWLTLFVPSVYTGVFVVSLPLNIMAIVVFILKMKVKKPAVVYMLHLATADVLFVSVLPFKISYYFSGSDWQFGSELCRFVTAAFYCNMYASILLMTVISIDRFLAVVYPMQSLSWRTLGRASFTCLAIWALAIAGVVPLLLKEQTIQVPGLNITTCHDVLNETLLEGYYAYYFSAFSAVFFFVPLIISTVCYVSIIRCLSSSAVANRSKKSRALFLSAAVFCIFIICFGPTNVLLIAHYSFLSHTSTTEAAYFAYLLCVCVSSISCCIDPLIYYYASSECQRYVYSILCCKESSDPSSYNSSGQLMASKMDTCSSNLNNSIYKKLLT
The experiment in a line: Binding assay (platelet membranes).

Series [9] deals with Platelet. In words: Inhibition of platelet aggregation (human plasma, TRAP-6) (IC50). Type of series: cell-based.
The subject of series [10] is Platelet. The experiment in a line: Inhibition of platelet aggregation (human plasma, thrombin). Type of series: cell-based.
Series [11] has as its target Kappa-type opioid receptor (Homo sapiens) (UniProt P41145). In words: kappa(KOP) (h) Eurofins-Cerep Cellular and Nuclear Receptor Functional Assays. The settings on record: Compound concentration 10.0 uM.
Series [12] has as its target 5-hydroxytryptamine receptor 5A (Homo sapiens) (UniProt P47898). The settings on record: Compound concentration 10.0 uM.
For series [13], the target named is Glutamate NMDA receptor (Rattus norvegicus) (UniProt P35439+Q00959+Q00960+Q00961+Q62645+Q8VHN2+Q9R1M7). The conditions noted are these: Compound concentration 10.0 uM.
Series [14] addresses T3, Muscarinic acetylcholine receptor M1 (Homo sapiens) (UniProt P11229).
T3 sequence (whole entry): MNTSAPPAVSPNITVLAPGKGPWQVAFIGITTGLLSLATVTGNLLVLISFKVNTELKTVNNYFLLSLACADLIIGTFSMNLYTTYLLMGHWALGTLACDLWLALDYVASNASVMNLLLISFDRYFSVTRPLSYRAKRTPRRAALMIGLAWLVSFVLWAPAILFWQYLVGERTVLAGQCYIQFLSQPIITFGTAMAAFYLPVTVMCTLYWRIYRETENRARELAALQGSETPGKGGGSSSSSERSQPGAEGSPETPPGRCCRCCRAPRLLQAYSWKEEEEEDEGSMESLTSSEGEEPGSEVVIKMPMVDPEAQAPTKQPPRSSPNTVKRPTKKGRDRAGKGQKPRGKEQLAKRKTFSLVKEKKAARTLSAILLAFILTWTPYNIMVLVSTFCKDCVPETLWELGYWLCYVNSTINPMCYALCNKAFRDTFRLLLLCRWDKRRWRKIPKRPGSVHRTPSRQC
The settings on record: Compound concentration 10.0 uM.

Series [15] addresses Muscarinic acetylcholine receptor M3 (Homo sapiens) (UniProt P20309). The settings on record: Compound concentration 10.0 uM.
Series [16] concerns the target Purinergic P2Y (Rattus norvegicus) (UniProt O35811+Q9EPX4+P49651+Q63371+P41232+O35881+Q6GUG4). The conditions noted are these: Compound concentration 10.0 uM.
For series [17], the target named is Sodium-dependent noradrenaline transporter (Homo sapiens) (UniProt P23975). The conditions noted are these: Compound concentration 10.0 uM.
Chain of Sodium-dependent noradrenaline transporter (Homo sapiens) (P23975 whole entry): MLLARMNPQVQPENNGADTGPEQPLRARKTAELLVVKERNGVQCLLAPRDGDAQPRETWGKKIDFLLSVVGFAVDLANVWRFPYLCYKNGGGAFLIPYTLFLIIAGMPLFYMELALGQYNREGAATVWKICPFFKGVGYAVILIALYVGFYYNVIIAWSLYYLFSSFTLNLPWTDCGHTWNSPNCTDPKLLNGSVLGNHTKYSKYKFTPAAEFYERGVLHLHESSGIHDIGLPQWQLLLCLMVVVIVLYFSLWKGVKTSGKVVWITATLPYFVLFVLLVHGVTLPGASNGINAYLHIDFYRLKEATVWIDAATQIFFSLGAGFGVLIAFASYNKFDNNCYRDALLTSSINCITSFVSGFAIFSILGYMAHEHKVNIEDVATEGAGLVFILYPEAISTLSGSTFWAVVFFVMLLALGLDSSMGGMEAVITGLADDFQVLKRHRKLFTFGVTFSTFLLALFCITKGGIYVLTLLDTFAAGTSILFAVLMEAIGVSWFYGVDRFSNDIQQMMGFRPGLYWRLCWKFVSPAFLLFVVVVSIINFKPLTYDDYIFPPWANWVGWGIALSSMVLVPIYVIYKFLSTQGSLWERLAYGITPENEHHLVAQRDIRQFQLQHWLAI
In series [18] the target is 5-hydroxytryptamine receptor 1E (Homo sapiens) (UniProt P28566). The settings on record: Compound concentration 10.0 uM.
Chain of 5-hydroxytryptamine receptor 1E (Homo sapiens) (P28566 whole entry): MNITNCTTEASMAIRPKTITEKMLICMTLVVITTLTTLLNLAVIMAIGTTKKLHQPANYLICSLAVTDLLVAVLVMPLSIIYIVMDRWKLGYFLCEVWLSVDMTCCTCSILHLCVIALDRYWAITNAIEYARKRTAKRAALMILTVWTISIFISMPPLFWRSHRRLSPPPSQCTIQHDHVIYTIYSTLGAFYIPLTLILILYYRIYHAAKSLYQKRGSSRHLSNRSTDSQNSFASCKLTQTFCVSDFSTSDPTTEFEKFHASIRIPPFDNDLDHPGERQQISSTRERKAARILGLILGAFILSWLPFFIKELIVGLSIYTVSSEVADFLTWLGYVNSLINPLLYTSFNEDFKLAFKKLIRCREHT
Series [19] deals with Beta-3 adrenergic receptor (Homo sapiens) (UniProt P13945). The conditions noted are these: Compound concentration 10.0 uM.
Chain of Beta-3 adrenergic receptor (Homo sapiens) (P13945 whole entry, looked up): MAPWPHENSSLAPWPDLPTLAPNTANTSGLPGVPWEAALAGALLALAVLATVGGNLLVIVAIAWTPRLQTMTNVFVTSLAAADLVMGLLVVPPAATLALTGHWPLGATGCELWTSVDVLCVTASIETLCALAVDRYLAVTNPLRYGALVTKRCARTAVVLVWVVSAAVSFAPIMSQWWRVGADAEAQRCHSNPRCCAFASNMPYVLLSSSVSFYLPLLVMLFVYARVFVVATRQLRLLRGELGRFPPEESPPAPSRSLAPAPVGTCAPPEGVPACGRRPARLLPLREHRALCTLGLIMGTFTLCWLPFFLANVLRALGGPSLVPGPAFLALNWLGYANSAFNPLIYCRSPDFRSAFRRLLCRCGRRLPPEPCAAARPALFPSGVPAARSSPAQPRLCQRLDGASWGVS

Structures are written as SMILES. Activity calls are given as the source filed them. The rule behind the calls is not given here.

Chain of Kappa-type opioid receptor (Homo sapiens) (P41145 whole entry): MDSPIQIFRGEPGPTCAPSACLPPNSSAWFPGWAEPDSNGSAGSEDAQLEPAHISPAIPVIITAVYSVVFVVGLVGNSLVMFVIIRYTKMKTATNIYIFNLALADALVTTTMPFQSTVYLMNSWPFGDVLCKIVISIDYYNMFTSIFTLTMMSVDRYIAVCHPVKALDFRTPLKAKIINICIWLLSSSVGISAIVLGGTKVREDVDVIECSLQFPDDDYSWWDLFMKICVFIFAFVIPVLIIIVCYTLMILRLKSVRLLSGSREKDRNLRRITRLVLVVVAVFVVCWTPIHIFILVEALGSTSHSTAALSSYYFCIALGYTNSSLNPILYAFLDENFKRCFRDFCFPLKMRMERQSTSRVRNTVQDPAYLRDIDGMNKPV
Chain of Sigma intracellular receptor 2 (Q5BJF2 whole entry): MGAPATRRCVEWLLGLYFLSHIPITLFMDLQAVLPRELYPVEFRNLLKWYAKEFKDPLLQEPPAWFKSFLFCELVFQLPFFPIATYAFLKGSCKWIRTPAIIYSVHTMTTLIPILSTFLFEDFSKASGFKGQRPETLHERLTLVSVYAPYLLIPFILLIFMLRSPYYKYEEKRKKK
Chain of 5-hydroxytryptamine receptor 5A (Homo sapiens) (P47898 whole entry): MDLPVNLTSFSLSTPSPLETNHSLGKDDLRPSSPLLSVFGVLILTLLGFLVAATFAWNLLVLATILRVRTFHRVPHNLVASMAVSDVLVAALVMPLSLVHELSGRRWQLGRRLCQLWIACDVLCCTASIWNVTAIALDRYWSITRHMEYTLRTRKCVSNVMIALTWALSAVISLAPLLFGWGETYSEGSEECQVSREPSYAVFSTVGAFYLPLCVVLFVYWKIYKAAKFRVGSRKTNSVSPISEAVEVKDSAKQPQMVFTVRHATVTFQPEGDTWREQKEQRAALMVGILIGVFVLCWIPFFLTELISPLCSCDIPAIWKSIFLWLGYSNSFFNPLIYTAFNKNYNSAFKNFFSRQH
Chain of Muscarinic acetylcholine receptor M3 (Homo sapiens) (P20309 whole entry, looked up): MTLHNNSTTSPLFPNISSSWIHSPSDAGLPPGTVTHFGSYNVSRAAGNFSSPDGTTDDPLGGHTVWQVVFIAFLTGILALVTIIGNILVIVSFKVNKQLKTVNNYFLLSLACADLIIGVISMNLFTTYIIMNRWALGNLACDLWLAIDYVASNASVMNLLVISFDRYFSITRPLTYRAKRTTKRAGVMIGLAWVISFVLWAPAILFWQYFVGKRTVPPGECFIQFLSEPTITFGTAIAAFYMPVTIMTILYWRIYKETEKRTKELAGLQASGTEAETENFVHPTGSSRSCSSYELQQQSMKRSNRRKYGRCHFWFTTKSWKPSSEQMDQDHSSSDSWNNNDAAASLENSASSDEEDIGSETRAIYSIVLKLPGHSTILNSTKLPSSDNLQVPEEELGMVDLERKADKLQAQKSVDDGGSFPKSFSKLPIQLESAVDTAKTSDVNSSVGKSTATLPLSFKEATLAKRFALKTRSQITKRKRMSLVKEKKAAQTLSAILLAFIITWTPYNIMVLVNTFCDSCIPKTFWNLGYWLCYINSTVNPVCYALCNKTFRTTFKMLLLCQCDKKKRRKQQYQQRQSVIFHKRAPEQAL

Turning to `O=C(N1CCS(=O)(=O)CC1)N1C[C@H](c2ccc(OC(F)(F)F)cc2)C[C@H](c2nc(C3CC3)no2)C1` [BAY-386], the Ki in [1] (read-out: Ki) was 1200 nM; in [1] (read-out: pKi (converted)), 1150 nM. The inhibition in series [2] is 9%; in [3], 15%; in series [4], 0%; in the series filed under Rattus norvegicus it was 3%; in [5], 12%; in [7], 8%. The inhibition in [12] was 10%; in series [13], 12%; in [14] it was -3%; in [15], -2%; in series [16] it was 12%; in series [17] it was 17%. Further, in series [6], the inhibition at 60 min, 10 µM was 55%. Also, the half-maximal inhibitory concentration (IC50) was 56 nM (active) in [8], 430 nM in the series with Platelet [9] and 140 nM with Platelet [10]. Besides, the % Inhibition of Control Agonist Response (Mean n=2) in series [11] was found to be 4.5%. Besides, the % of Control Agonist Response (Mean n=2) in [11] was determined as 20.6%.
`Cc1noc([C@H]2C[C@@H](c3ccc(C(F)(F)F)cc3)CN(C(=O)N3CCS(=O)(=O)C3)C2)n1` [BAY-448]: the inhibition in series [18] was 21.5%; in series [19], 19.3%.
